Structures are written as SMILES.

A word on the AC50: it is the concentration at which the activity in the assay is half-maximal. The term EC50 denotes the concentration at which the effect is half-maximal.

Assay type in all cases: cell-based
One experiment addresses T1, APOL1 G2 (Homo sapiens, UniProt O14791, DEL388-389).
T1 construct: expressed in transfected cells; host or cells: HEK293 T-REx clonal line stably expressing GCaMP6f (HEK T-REx/GCaMP6f/APOL1 G2 K6.3), doxycycline induced
T1 sequence (O14791 with tags, fused parts or gaps DEL388-389): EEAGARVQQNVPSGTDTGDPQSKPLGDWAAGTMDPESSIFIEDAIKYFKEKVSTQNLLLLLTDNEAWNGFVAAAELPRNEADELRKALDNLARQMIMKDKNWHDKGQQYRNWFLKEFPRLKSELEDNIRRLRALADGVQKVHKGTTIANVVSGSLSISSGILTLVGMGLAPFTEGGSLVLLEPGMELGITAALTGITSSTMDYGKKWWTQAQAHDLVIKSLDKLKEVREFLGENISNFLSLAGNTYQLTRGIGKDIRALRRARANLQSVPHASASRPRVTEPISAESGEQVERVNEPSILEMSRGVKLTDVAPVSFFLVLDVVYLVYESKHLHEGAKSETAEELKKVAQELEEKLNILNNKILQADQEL
The experiment can be described thus: APOL1-mediated calcium transport (calcium influx) assay, HEK T-REx/GCaMP6f/APOL1 G2 K6.3 cells, FLIPR TETRA. Particulars: prevention of calcium influx; geometric mean of at least 2 assay runs; † = average of a technical replicate from a single assay run. On the procedure:
A HEK293 clonal cell line was generated to stably express GCaMP6f, a genetically encoded calcium indicator, and inducibly express APOL1 G2 (HEK T-REx/GCaMP6f/APOL1 G2 K6.3). Cells were maintained in the following standard complete medium: DMEM with 4.5 g/L glucose and sodium pyruvate (BioWhittaker, Lonza, BE12-614F), supplemented with 10% FBS Performance Plus (Gibco, 16000044), 1% penicillin-streptomycin (BioWhittaker, DE17-602E), 2 mM ultraglutamine-1 (BioWhittaker cat. BE 17-605/U1), 50 μg/mL Zeocin (InvivoGen, ant-zn), 2.5 μg/mL Blasticidin (InvivoGen, ant-bl-5), and 25 μg/mL Hygromycin (InvivoGen, ant-hg). Standard propagation conditions consisted of plating 9×10^6, 4×10^6, 2×10^6 cells in a T225 flasks to be processed after 2, 3, or 4 days, respectively.
A source plate was generated containing 20 serially diluted compounds in DMSO (duplicate 8-point dose response). Next, 0.8 μL of compounds were transferred from the source plate to a destination plate prefilled with 79.2 μL of Ca^2+ free Tyrode's buffer (130 mM NaCl, 5 mM KCl, 1 mM MgCl2, 5 mM NaHCO3, 20 mM HEPES at pH 7.4). The destination plate was placed on a plate shaker (5 seconds at 2000 rpm) to mix. […] All transfer and mixing steps were conducted with an CyBi®-Well dispenser.
Cells were split by gently washing with DPBS (Euroclone, ECB4004L), followed by a 5-minute incubation (humidified, 37° C. with 5% CO2) with trypsin-EDTA solution (Euroclone, ECB3052D). Detached cells were diluted with standard complete medium without selective agents, counted, and plated in a 384 MTP microplate (GR4332CPL, Twin Helix) (10,000 cells/well in 25 μl/well) using a MATRIX WellMate dispenser. Plates were placed into a humidified incubator (37° C. with 5% CO2) overnight. The following day, 20 μL of doxycycline (Sigma, D9891) at 20 ng/mL in standard complete medium was added to cells with a CyBi® Drop dispenser to induce APOL1 G2 expression. After a 6-hour incubation (humidified, 37° C. with 5% CO2), cells were washed 3 times with Ca^2+ free Tyrode's Buffer (130 mM NaCl, 5 mM KCl, 1 mM MgCl2, 5 mM NaHCO3, 20 mM HEPES at pH 7.4) using a BIOTEK Microplate washer, such that 10 μL of buffer remained in each well after the final wash. Assay plates were then stored at room temperature for 10 minutes. Next, 10 μL of diluted compounds were transferred to the assay plate from the 2× compound plate using a CyBi®-Well dispenser. Compound incubation was then carried out at room temperature for 10 minutes. The assay plate was transferred to the FLIPR^TETRA and 20 μL of 10 mM Ca^2+ (final concentration=5 mM) Tyrode's buffer was injected.
Unless otherwise specified, AC50 and values are reported as the geometric mean of at least 2 assay runs on separate days. Each run represents the average of a technical replicate, where each compound was assayed twice in the same plate. A superscript t symbol indicates a value from the average of a technical replicate from a single assay run, where each compound was assayed twice in the same plate.
The AC50 values in Table 39 below reflect the compound's ability to prevent calcium influx by inhibiting APOL1. […] Compounds in Table 39 are referred to by the corresponding Compound Number in Table 1, which is also referred to in the synthetic examples. When one or more of the numbered compounds are identified by stereochemistry (for example, (R)- or (S)-), the specific stereoisomer for which data is provided in Table 39 may be identified by the elution order of such compound as described in the synthetic examples. For example, Compounds 39 and 40 are associated with Step 5 of Example 13, where Compound 39 is the first eluting enantiomer, and Compound 40 is the second eluting enantiomer in the chiral separation of Compound 38. For Table 39 below, n/a represents “not available”.

In experiment [1] the test system is HEK293 cells overexpressing APOL1 G2. The experiment can be described thus: APOL1 G2 HEK293 cell rescue assay (reversal of cell death caused by overexpression of APOL1). The conditions noted are these: geometric mean of at least 2 assay runs, † = single assay run. An outline of the steps:
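EC50 is the half-maximal effective concentration for reversing cell death driven by APOL1 G2 overexpression in HEK293 cells. Reported as geometric mean of at least 2 runs on separate days, each run averaging duplicate wells per plate; some values from a single run.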

Experiment [2] concerns HEK293 clonal cell line overexpressing APOL1 G1. The experiment can be described thus: APOL1 G1 HEK293 cell rescue assay (Example B3). The conditions noted are these: geometric mean of at least 2 runs, † = single run, ¥ = concentration at 50% rescue estimated (no sigmoidal curve). An outline of the steps:
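HEK293 clonal line overexpressing APOL1 G1; EC50 is half-maximal reversal of APOL1-induced cell death. Values are the geometric mean of ≥2 runs on separate days, each run the average of duplicate wells. Where no sigmoidal curve could be fitted, the concentration giving 50% rescue was estimated.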

The mark [3] stands for this setting: Homo sapiens, HEK293, HEK293 overexpressing APOL1 G2.
The mark [4] stands for this setting: Homo sapiens, HEK293, HEK293 clonal line overexpressing APOL1 G1.
Where [5] appears, read: HEK293 clonal line overexpressing APOL1 G1.

For `[2H]C([2H])([2H])N1C(=O)C2(CCN(CCOc3cnc4c(c3)CCC(=O)N4[C@H]3C[C@@H](O)C3)CC2)c2cc(Cl)ccc21` [Compound 423, 5-chloro-1-(^2H3)methyl-1′-[2-({7-oxo-8-[(cis)-3-hydroxycyclobutyl]-5,6,7,8-tetrahydro-1,8-naphthyridin-3-yl}oxy)ethyl]-1,2-dihydrospiro[indole-3,4′-piperidin]-2-one], on APOL1 G2, the concentration at half-maximal activity (AC50) came out at 284 nM. The EC50 in experiment [1] (setting [3]) was 59.3 nM; in experiment [2] (setting [4]), 116 nM.

For `Cc1cc(OCCN2CCC3(CC2)C(=O)Nc2ccc(C#N)cc23)cc(C)c1S(C)(=O)=O` [Compound 130, 1′-[2-(4-methanesulfonyl-3,5-dimethylphenoxy)ethyl]-2-oxo-1,2-dihydrospiro[indole-3,4′-piperidine]-5-carbonitrile], the AC50 on APOL1 G2 is 525 nM. Further, the EC50 in experiment [1] (setting [3]) is 92.3 nM; in experiment [2] (setting [4]), 253 nM.

On to `N#Cc1ccc2c(c1)C1(CCN(CCOc3ccc4c(c3)CCN3C(=O)CCC43)CC1)C(=O)N2` (single isomer, unassigned) [Compound 126, (R) or (S)-2-oxo-1′-[2-({3-oxo-1H,2H,3H,5H,6H,10bH-pyrrolo[2,1-a]isoquinolin-8-yl}oxy)ethyl]-1,2-dihydrospiro[indole-3,4′-piperidine]-5-carbonitrile], for which the half-maximal activity concentration (AC50) on APOL1 G2 was 624 nM. Besides, the EC50 in experiment [1] (HEK293 overexpressing APOL1 G2) was 273 nM; in experiment [2] (setting [5]), 1010 nM.

For the compound `N#Cc1ccc2c(c1)C1(CCN(CCOc3ccc(C4(C(=O)N5CC(F)C5)COC4)cc3)CC1)C(=O)N2` [Compound 252, 1′-(2-{4-[3-(3-fluoroazetidine-1-carbonyl)oxetan-3-yl]phenoxy}ethyl)-2-oxo-1,2-dihydrospiro[indole-3,4′-piperidine]-5-carbonitrile], the AC50 on APOL1 G2 is 1350 nM. In addition, the half-maximal effective concentration (EC50) was 471 nM in experiment [1] (setting [3]) and ~1800 nM in experiment [2] (setting [4]).

`CS(=O)(=O)c1ccc(OCCN2CCC3(CC2)C(=O)Nc2ccc(Cl)cc23)cc1C(F)CF` (stereo not drawn) [Compound 217, 5-chloro-1′-{2-[3-(1,2-difluoroethyl)-4-methanesulfonylphenoxy]ethyl}-1,2-dihydrospiro[indole-3,4′-piperidin]-2-one]: the AC50 at APOL1 G2 stood at 866 nM. The values for the EC50 in experiment [1] (setting [3]) and in experiment [2] (setting [4]) were 32.6 nM and 108 nM, respectively.

With `C[C@@H](CN1CCC2(CC1)C(=O)Nc1ccc(Cl)cc12)Oc1ccc(S(C)(=O)=O)cc1` (single isomer, unassigned) [Compound 11], on APOL1 G2, the AC50 amounted to 1050 nM. The EC50 in experiment [1] (setting [3]) was 1700 nM; in experiment [2] (setting [4]), 2300 nM.

For `N#Cc1ccc2c(c1)C1(CCN(CCOc3ccc4c(c3)CCN3C(=O)NCC43)CC1)C(=O)N2` (stereo not drawn) [Compound 118, 2-oxo-1′-[2-({3-oxo-1H,2H,3H,5H,6H,10bH-imidazo[4,3-a]isoquinolin-8-yl}oxy)ethyl]-1,2-dihydrospiro[indole-3,4′-piperidine]-5-carbonitrile], the AC50 at APOL1 G2 came to 1040 nM. Moreover, the EC50 in experiment [1] (setting [3]) was 431 nM; in experiment [2] (setting [4]), ~2100 nM.

On to `CC1(O)CN(c2ncc(OCCN3CCC4(CC3)C(=O)Nc3ccc(C#N)cc34)cc2C(F)(F)F)C1` [Compound 431, 1′-(2-{[6-(3-hydroxy-3-methylazetidin-1-yl)-5-(trifluoromethyl)pyridin-3-yl]oxy}ethyl)-2-oxo-1,2-dihydrospiro[indole-3,4′-piperidine]-5-carbonitrile], for which the AC50 on APOL1 G2 amounted to 4870 nM. For the same compound, the 50% effective concentration (EC50) in experiment [1] (setting [3]) was 18.7 nM; in experiment [2] (setting [4]) it was 37 nM.

On to `CN1Cc2cc(OCCN3CCC4(CC3)C(=O)N(C)c3ccccc34)ccc2C1=O` [Compound 30, 1-methyl-1′-{2-[(2-methyl-1-oxo-2,3-dihydro-1H-isoindol-5-yl)oxy]ethyl}-1,2-dihydrospiro[indole-3,4′-piperidin]-2-one], for which the AC50 on APOL1 G2 was determined as 409 nM. Further, the values for the EC50 in experiment [1] (setting [3]) and in experiment [2] (setting [4]) were 1480 nM and > 22500 nM, respectively.

As for `CS(=O)(=O)c1ccc(OCCN2CCC3(CC2)C(=O)Nc2ccc(Cl)cc23)cc1C1COC1` [Compound 223, 5-chloro-1′-{2-[4-methanesulfonyl-3-(oxetan-3-yl)phenoxy]ethyl}-1,2-dihydrospiro[indole-3,4′-piperidin]-2-one], the AC50 on APOL1 G2 turned out to be 311 nM. Further, the EC50 in experiment [1] (setting [3]) is 97.8 nM; in experiment [2] (setting [4]), 326 nM.

For `[2H]C([2H])([2H])N1C(=O)C2(CCN(CCOc3cnc(C4(S(C)(=O)=O)CC4)nc3)CC2)c2cc(Cl)ccc21` [Compound 424, 5-chloro-1′-(2-{[2-(1-methanesulfonylcyclopropyl)pyrimidin-5-yl]oxy}ethyl)-1-(^2H3)methyl-1,2-dihydrospiro[indole-3,4′-piperidin]-2-one], at APOL1 G2, the AC50 turned out to be 895 nM. For the same compound, the EC50 in experiment [1] (setting [3]) was 50.2 nM; in experiment [2] (setting [4]) it was 112 nM.

As to `CC1(C)OC(=O)c2cc(OCCN3CCC4(CC3)C(=O)Nc3ccc(Cl)cc34)cnc21` [Compound 458, 5-chloro-1′-[2-({7,7-dimethyl-5-oxo-5H,7H-furo[3,4-b]pyridin-3-yl}oxy)ethyl]-1,2-dihydrospiro[indole-3,4′-piperidin]-2-one], at APOL1 G2, the AC50 was 528 nM. Moreover, the values for the EC50 in experiment [1] (setting [3]) and in experiment [2] (setting [4]) were 16.5 nM and 75.7 nM, respectively.

On to `CC(COc1ccc2c(c1)CCC(=O)N2C)N1CCC2(CC1)C(=O)Nc1ccc(Cl)cc12` (single isomer, unassigned) [Compound 201, chloro-1′-[(2R) or (2S)-1-[(1-methyl-2-oxo-1,2,3,4-tetrahydroquinolin-6-yl)oxy]propan-2-yl]-1,2-dihydrospiro[indole-3,4′-piperidin]-2-one], for which the concentration at half-maximal activity (AC50) on APOL1 G2 was determined as 909 nM. Moreover, the EC50 in experiment [1] (HEK293 overexpressing APOL1 G2) was 609 nM; in experiment [2] (setting [5]), 4920 nM.

The values are drawn from US12344610B2, “APOL1 inhibitors and methods of use” (Maze Therapeutics, Inc., priority 2022, dated 2025).
